# Read-outs that look alike come from different tables or passages of the source.
# Columns and labels:
# SARS-Cov-2 3CLpro = SARS-Cov-2 3CLpro (Severe acute respiratory syndrome coronavirus 2, UniProt P0DTD1); assay: biochemical; conditions: Table A, class symbols, read-out: SARS-Cov-2 (IC50)
# [1] = tested on: human beta-coronavirus OC43; assay: OC43 Coronavirus Assay in HeLa cells (antiviral, cytopathic effect, cell-titer-glo); format: cell-based; conditions: Betacoronavirus 1, OC43, HeLa, Table B; OC43 coronavirus in HeLa cells, class symbols; read-out: EC50
# [2] = tested on: SARS-CoV-2 B.1.1.7 lineage; assay: microbe, parasite or virus in culture; format: cell-based; conditions: Severe acute respiratory syndrome coronavirus 2, Table C, SARS-CoV-2 B.1.1.7 in A549-dual_ACE2_TMPRSS2 cells, read-out: A549-dual_ACE2_TMPRSS2 (EC50)
# in vitro = conditions: human
# [3] = Cytotoxicity in HeLa cells without addition of OC43 virus (in parallel); conditions: human, HeLa cells, without OC43 virus
SMILES,IC50 (SARS-Cov-2 3CLpro),EC50 [1],EC50 ([2]; cells given as a bound),CC50 (in vitro),CC50 at 6 days [3],EC50 ([2]; class symbols)
CN1CCC[C@H]1C(=O)N(C)[C@@H](CC1CC1)C(=O)N1C[C@@]2(C[C@H]1C#N)Oc1cc(F)cc(F)c1NC2=O [Compound 131],20 to 200 nM,1000 to 10000 nM,> 1000 nM,> 1000 nM,> 10 µM,
CN(C(=O)CCN1CCOCC1)[C@@H](CC1CC1)C(=O)N1C[C@@]2(C[C@H]1C#N)Oc1cc(F)cc(F)c1NC2=O [Compound 132],20 to 200 nM,1000 to 10000 nM,,> 1000 nM,> 10 µM,100 to 1000 nM
CN(C(=O)c1cc2cccc(Cl)c2[nH]1)[C@@H](CC1CC1)C(=O)N1C[C@@]2(C[C@H]1C#N)Oc1cc(F)cc(F)c1NC2=O [Compound 133],< 20 nM,100 to 1000 nM,,> 1000 nM,> 10 µM,100 to 1000 nM
COc1ccc(Cl)c2[nH]c(C(=O)N(C)[C@@H](CC3CC3)C(=O)N3C[C@@]4(C[C@H]3C#N)Oc3cc(F)cc(F)c3NC4=O)cc12 [Compound 135],< 20 nM,< 100 nM,,> 1000 nM,> 10 µM,100 to 1000 nM
CN(C(=O)C(O)c1ccc(F)cc1)[C@@H](CC1CC1)C(=O)N1C[C@@]2(C[C@H]1C#N)Oc1cc(F)cc(F)c1NC2=O (stereo partly shown) [Compound 136],< 20 nM,100 to 1000 nM,,> 1000 nM,> 10 µM,100 to 1000 nM
CN(C(=O)c1cc2cccnc2[nH]1)[C@@H](CC1CC1)C(=O)N1C[C@@]2(C[C@H]1C#N)Oc1cc(F)cc(F)c1NC2=O [Compound 137],20 to 200 nM,1000 to 10000 nM,,> 1000 nM,> 10 µM,100 to 1000 nM
CN(C(=O)C(O)C(C)(C)C)[C@@H](CC1CC1)C(=O)N1C[C@@]2(C[C@H]1C#N)Oc1cc(F)cc(F)c1NC2=O (stereo partly shown) [Compound 138],< 20 nM,100 to 1000 nM,,> 1000 nM,> 10 µM,100 to 1000 nM
COC(=O)N[C@@H](CC1CC1)C(=O)N(C)[C@@H](CC1CC1)C(=O)N1C[C@@]2(C[C@H]1C#N)Oc1ccccc1CNC2=O [Compound 139],< 20 nM,< 100 nM,,> 1000 nM,> 10 µM,100 to 1000 nM
CN(C(=O)c1cc2c(F)cc(F)c(F)c2[nH]1)[C@@H](CC1CC1)C(=O)N1C[C@@]2(C[C@H]1C#N)Oc1ccccc1CNC2=O [Compound 140],< 20 nM,< 100 nM,,> 1000 nM,> 10 µM,< 100 nM
CN(C(=O)[C@H](CC1CC1)NC(=O)C(F)(F)F)[C@@H](CC1CC1)C(=O)N1C[C@@]2(C[C@H]1C#N)Oc1cccc(F)c1CNC2=O [Compound 141],< 20 nM,< 100 nM,,> 1000 nM,> 10 µM,100 to 1000 nM
CN(C(=O)[C@H](CC1CC1)NC(=O)C(F)(F)F)[C@@H](CC1CC1)C(=O)N1C[C@@]2(C[C@H]1C#N)Oc1cc(F)ccc1CNC2=O [Compound 142],< 20 nM,< 100 nM,,> 1000 nM,> 10 µM,< 100 nM
CN(C(=O)[C@H](CC1CC1)NC(=O)C(F)(F)F)[C@@H](CC1CC1)C(=O)N1C[C@@]2(C[C@H]1C#N)Oc1cc(C(=O)N3CCOCC3)ccc1NC2=O [Compound 143],< 20 nM,< 100 nM,,> 1000 nM,> 10 µM,100 to 1000 nM
C[C@H](NC(=O)C(F)(F)F)C(=O)N(C)[C@@H](CC1CC1)C(=O)N1C[C@@]2(C[C@H]1C#N)Oc1cc(F)cnc1NC2=O [Compound 144],< 20 nM,< 100 nM,,> 1000 nM,> 10 µM,100 to 1000 nM
Cc1cn([C@@H](CC2CC2)C(=O)N(C)[C@@H](CC2CC2)C(=O)N2C[C@@]3(C[C@H]2C#N)Oc2cc(F)cc(F)c2NC3=O)nn1 [Compound 146],< 20 nM,100 to 1000 nM,,> 1000 nM,> 10 µM,100 to 1000 nM

# Reference: patent US20240199647A1, “ANTI-VIRAL COMPOUNDS” (Aligos Therapeutics, Inc., priority 2022, published 2024)
